Laboratory results reported in patent US20230181564A1, “Potent Tetrahydroquinolone Eliminates Apicomplexan Parasites” (The University of Chicago, priority 2020, published 2023).
In brackets after ≈: the same amount, converted by molar mass.

Tests used:
[1] = test system: Human Foreskin Fibroblast (HFF); assay: Cytotoxicity assay with WST-1 on HFF; format: cell-based; settings: WST assay, HFF; second value of cell
Description: PBS Sol/Toxicity pH7.4 refers to solubility of the compound in Phosphate Buffered Saline (PBS) at pH7.4. […] Tachy/Brady IC50 was determined in studies in which cultures of parasites in HFF were treated with varying concentrations of the compound and there was 50% inhibition of the replication (number) of parasites. Parasites were RH-YFP expressing tachyzoites (Tachy) and EGS (Brady) strains. Studies of effects of inhibitors on HFF or on T.gondii tachyzoites were performed with triplicate wells in at least two biological replicate experiments. Studies of effects on bradyzoites were performed at least twice in at least two biological replicate experiments. Compounds with much less inhibition of mammalian than T. gondii cytochrome bc in the saffarine enzyme assay (indicated by **) provide potential to further develop compounds, if unanticipated toxicity occurs from JAG21.
Cytotoxicity Assays in parallel with RH Strain T.gondii in vitro studies. Toxicity assays used WST-1 cell proliferation reagent (Roche) as in Fomovska et al. (2012). HFF were grown on a flat, clear-bottomed, black 96-well plate. Confluent HFF were treated with inhibitory compounds at concentrations of 10 μM and 50 μM. Compounds were diluted in IMDM-C, and 20 μL were added to each designated well, with triplicates for each condition. A gradient with 2 fold-decreasing concentrations of DMSO from 10% to 0% in colorless, translucent IMDM-C was used as a control. The plate was incubated for 72 hours at 37° C. 10 μL WST-1 reagent (Roche) were added to each well. Cells were incubated for 30-60 minutes. Absorbance was read using a fluorimeter at 420 nm. A higher degree of color change (and absorbance) indicated mitochondrial activity and cell viability.
Because T. gondii grows inside cells, if a compound were toxic to host HFF then it would make the compound appear to be spuriously effective (Fomovska et al. 2012; Fomovska et al. 2012a), when in actuality only toxicity for the host cell would be measured. Cytotoxicity to HFF was therefore assessed for all compounds at 10 μM. Results of this experiment are in Table 1, toxicity column. A two-way ANOVA and subsequent pairwise comparison found none of the differences in absorbance, compared to the media-DMSO vehicle controls, to be statistically significant (p>0.05). Most of these compounds are not toxic at 10 μM (the limit of solubility) and that cytotoxicity to cells can be attributed to DMSO in the solution, not the compound.

[2] = Kinetic/aqueous solubility in PBS pH 7.4; format: physicochemical; settings: for PBS Sol pH7.4: solubility in Phosphate Buffered Saline pH 7.4, first value of cell
Description: PBS Sol/Toxicity pH7.4 refers to solubility of the compound in Phosphate Buffered Saline (PBS) at pH7.4. […] Parasites were RH-YFP expressing tachyzoites (Tachy) and EGS (Brady) strains. Studies of effects of inhibitors on HFF or on T.gondii tachyzoites were performed with triplicate wells in at least two biological replicate experiments. Studies of effects on bradyzoites were performed at least twice in at least two biological replicate experiments. Compounds with much less inhibition of mammalian than T. gondii cytochrome bc in the saffarine enzyme assay (indicated by **) provide potential to further develop compounds, if unanticipated toxicity occurs from JAG21.
Structure Activity Relationship (SAR) and comparison of effect on T.gondii and HFF enzyme activity. […] The MDCK-MDR1 Permeability Assay was also performed. […] These were measured by Chem Partners.

[3] = Metabolic stability in mouse liver microsomes; format: in vitro ADME; settings: predicted half-life in mouse liver microsomes; no unit in table (101 minutes for JAG021)

PBS Sol pH7.4 [2] [μM]	SMILES	Toxicity* (highest concentration tested that does not show toxicity to HFF) [1]	other results
	Cc1[nH]c2cc(-c3ccccc3)nn2c(=O)c1-c1ccc(Oc2ccc(OC(F)(F)F)cc2)cc1 [JAG015]	ND/5 μM	
	CC1CCc2c([nH]c(CO)c(-c3ccc(Oc4ccc(OC(F)(F)F)cc4)cc3)c2=O)C1 (stereo not shown) [JAG193]	ND/5 μM	
	Cc1[nH]c2c(c(=O)c1-c1ccc(O)cc1)CCCC2 [JAG094]	ND/5 μM	
5.05	Cc1[nH]c2c(c(=O)c1-c1ccc(Oc3cc(Cl)nc(Cl)c3)cc1)CCCC2 [AS034]		T1/2 (M) [3]: 24.93
	Cc1[nH]c2ccccc2c(=O)c1-c1ccc(Oc2ccccc2)cc1 [MJM129]	ND/5 μM	
	Cc1[nH]c2c(c(=O)c1-c1ccc(Oc3ccc(C(=O)O)cc3)nc1)CCCC2 [JAG022]	ND/5 μM	
0.68	Cc1[nH]c2c(c(=O)c1-c1ccc(Oc3ccc(Cl)c(Cl)c3)cc1)CCCC2 [JAG084]		T1/2 (M) [3]: 63.1
0.55	Cc1[nH]c2c(c(=O)c1-c1ccc(Oc3cccc(OC(F)(F)F)c3)cc1)CCCC2 [AS006]		T1/2 (M) [3]: 25.88
6.25	Cc1[nH]c2c(c(=O)c1-c1ccc(Oc3cc(Cl)cc(Cl)c3)cc1)CCCC2 [AS022]		T1/2 (M) [3]: 28.62
0.5	Cc1[nH]c2c(c(=O)c1-c1ccc(Oc3cccc(F)c3)cc1)CCCC2 [JAG069]		T1/2 (M) [3]: 17.38
0.16	CCC1CCc2c([nH]c(C)c(-c3ccc(Oc4ccc(OC(F)(F)F)cc4)cc3)c2=O)C1 (stereo not shown) [JAG121]		T1/2 (M) [3]: 63.28
0.94	Cc1[nH]c2ccnn2c(=O)c1-c1ccc(Oc2ccc(OC(F)(F)F)cc2)cc1 [MJM141]		
0.03	Cc1[nH]c2c(c(=O)c1-c1ccc(Oc3ccc(OC(F)(F)F)cc3)cc1)CCC(C)C2 (stereo not shown) [JAG107]		T1/2 (M) [3]: 111.93
0.02	Cc1[nH]c2c(c(=O)c1-c1ccc(Oc3ccc(OC(F)(F)F)cc3)cc1)CCC(C(F)(F)F)C2 (stereo not shown) [JAG162]		T1/2 (M) [3]: 144.43
0.33	Cc1[nH]c2c(c(=O)c1-c1ccc(Oc3cccc(Cl)c3)cc1)CCCC2 [JAG062]		T1/2 (M) [3]: 12.42
2.38	Cc1[nH]c2c(c(=O)c1-c1ccc(Oc3ccc(F)cc3)cc1)CCCC2 [JAG058]		T1/2 (M) [3]: 39.17
2	Cc1[nH]c2c(c(=O)c1-c1ccc(Oc3ccc(F)c(Cl)c3)cc1)CCCC2 [AS021]		T1/2 (M) [3]: 41.09
	Cc1[nH]c2c(c(=O)c1-c1ccc(Oc3cc(Cl)cc(Cl)c3)cc1)CCC(C)C2 (stereo not shown) [JAG208]	ND/5 μM	
	Cc1[nH]c2c(c(=O)c1-c1cccc(Oc3ccc(OC(F)(F)F)cc3)c1)CCCC2 [NP032]	ND/5 μM	
	Cc1[nH]c2c(c(=O)c1-c1cccc(Oc3ccc(F)c(Cl)c3)c1)CCCC2 [JAG200]	ND/5 μM	
	O=c1c2c([nH]c(CO)c1-c1ccc(Oc3ccc(OC(F)(F)F)cc3)cc1)CC(C(F)(F)F)CC2 (stereo not shown) [JAG187]	ND/5 μM	
	Cc1cc2[nH]c(C)c(-c3ccc(Oc4ccc(OC(F)(F)F)cc4)cc3)c(=O)n2n1 [JAG006]	ND/5 μM	

PBS Sol pH7.4 [2] [μM]	SMILES	Toxicity* (highest concentration tested that does not show toxicity to HFF) [1]	other results
	Cc1[nH]c2c(c(=O)c1-c1ccc(Oc3ccc(OC(F)(F)F)cc3)nc1)CCCC2 [JAG092]	ND/5 μM	
	Cc1c(-c2ccc(Oc3ccc(Cl)cc3)cc2)c(=O)c2c(n1C)CCCC2 [JAG077]	ND/5 μM	
	Cc1[nH]c2c(c(=O)c1-c1ccc(Oc3ccc(OC(F)(F)F)cc3)cc1)CC(C(F)(F)F)CC2 (stereo not shown) [JAG100]	ND/5 μM	
	Cc1[nH]c2c(c(=O)c1-c1ccc(Oc3ccc4c(c3)OCO4)cc1)CCCC2 [AS032]	ND/5 μM	
	COc1ccc(Oc2ccc(-c3c(C)[nH]c4c(c3=O)CCCC4)cc2)cc1OC [AS033]	ND/5 μM	
	CSc1nc2[nH]c(C)c(-c3ccc(Oc4ccc(OC(F)(F)F)cc4)cc3)c(=O)n2n1 [JAG013]	ND/5 μM	
	Cc1[nH]c2ncnn2c(=O)c1-c1ccc(Oc2ccc(OC(F)(F)F)cc2)cc1 [MJM136]	ND/5 μM	
	Cc1[nH]c2c(c(=O)c1-c1ccc(Oc3ccc(OC(F)(F)F)cc3)cc1)CC(C)CC2 (stereo not shown) [JAG106]	ND/5 μM	
	CCC1CCc2c([nH]c(CO)c(-c3ccc(Oc4ccc(OC(F)(F)F)cc4)cc3)c2=O)C1 (stereo not shown) [JAG174]	ND/5 μM	
	Cc1[nH]c2c(c(=O)c1-c1cccc(Oc3ccc(Cl)cc3)c1)CCCC2 [NP034]	ND/5 μM	
	CCOC(=O)Oc1c2c(nc(C)c1-c1ccc(Oc3ccc(OC(F)(F)F)cc3)cc1)CCCC2 [JAG171]	ND/5 μM	
	Cc1[nH]c2c(C#N)cnn2c(=O)c1-c1ccc(Oc2ccc(OC(F)(F)F)cc2)cc1 [JAG014]	ND/5 μM	
	Cc1[nH]c2c(c(=O)c1-c1cccc(Oc3ccc(C(F)(F)F)cc3)c1)CCCC2 [NP035]	ND/5 μM	
	Cc1[nH]c2c(c(=O)c1-c1cccc(Oc3cc(Cl)cc(Cl)c3)c1)CCCC2 [JAG199]	ND/5 μM	
5.12	Cc1[nH]c2cnccc2c(=O)c1-c1ccc(Oc2ccc(OC(F)(F)F)cc2)cc1 [JAG129]		
	Cc1c(-c2ccc(Oc3ccc(OC(F)(F)F)cc3)cc2)c(=O)c2c(n1C)CCCC2 [JAG023]	ND/5 μM	
	O=C(O)c1[nH]c2c(c(=O)c1-c1ccc(Oc3ccc(OC(F)(F)F)cc3)cc1)CCCC2 [JAG091]	ND/5 μM	
2.19	Cc1[nH]c2c(c(=O)c1-c1ccc(Oc3cccc(C(F)(F)F)c3)cc1)CCCC2 [AS012]		T1/2 (M) [3]: 30.05
	Cc1[nH]c2c(c(=O)c1-c1ccc(OCc3ccccc3)cc1)CCCC2 [JAG204]	ND/5 μM	
0.45	Cc1[nH]c2c(c(=O)c1-c1ccc(Oc3ccc(C(F)(F)F)cc3)cc1)CCCC2 [JAG063]		T1/2 (M) [3]: 126.96
	O=c1[nH]c2c(c(=O)n1-c1ccc(Oc3ccccc3)cc1)CCCC2 [JAG095]	ND/5 μM	
0.15	Cc1[nH]c2ccccc2c(=O)c1-c1ccc(Oc2ccc(OC(F)(F)F)cc2)cc1 [ELQ271, reference compound]		solubility ([2]; amorphous compounds): 0.2 µM (≈ 0.0823 µg/mL)
